This is an account of results in patent US8450374B2, “Pan-antagonists for the androgen receptor and androgen receptor mutants associated with anti-androgen withdrawal” (priority 2009, dated 2013).

Numbering of substitutions follows the chain as printed.

Data set [1] concerns the target T1, AR T877A (Homo sapiens, UniProt P10275, T878A).
T1 sequence (P10275 1-920 T878A): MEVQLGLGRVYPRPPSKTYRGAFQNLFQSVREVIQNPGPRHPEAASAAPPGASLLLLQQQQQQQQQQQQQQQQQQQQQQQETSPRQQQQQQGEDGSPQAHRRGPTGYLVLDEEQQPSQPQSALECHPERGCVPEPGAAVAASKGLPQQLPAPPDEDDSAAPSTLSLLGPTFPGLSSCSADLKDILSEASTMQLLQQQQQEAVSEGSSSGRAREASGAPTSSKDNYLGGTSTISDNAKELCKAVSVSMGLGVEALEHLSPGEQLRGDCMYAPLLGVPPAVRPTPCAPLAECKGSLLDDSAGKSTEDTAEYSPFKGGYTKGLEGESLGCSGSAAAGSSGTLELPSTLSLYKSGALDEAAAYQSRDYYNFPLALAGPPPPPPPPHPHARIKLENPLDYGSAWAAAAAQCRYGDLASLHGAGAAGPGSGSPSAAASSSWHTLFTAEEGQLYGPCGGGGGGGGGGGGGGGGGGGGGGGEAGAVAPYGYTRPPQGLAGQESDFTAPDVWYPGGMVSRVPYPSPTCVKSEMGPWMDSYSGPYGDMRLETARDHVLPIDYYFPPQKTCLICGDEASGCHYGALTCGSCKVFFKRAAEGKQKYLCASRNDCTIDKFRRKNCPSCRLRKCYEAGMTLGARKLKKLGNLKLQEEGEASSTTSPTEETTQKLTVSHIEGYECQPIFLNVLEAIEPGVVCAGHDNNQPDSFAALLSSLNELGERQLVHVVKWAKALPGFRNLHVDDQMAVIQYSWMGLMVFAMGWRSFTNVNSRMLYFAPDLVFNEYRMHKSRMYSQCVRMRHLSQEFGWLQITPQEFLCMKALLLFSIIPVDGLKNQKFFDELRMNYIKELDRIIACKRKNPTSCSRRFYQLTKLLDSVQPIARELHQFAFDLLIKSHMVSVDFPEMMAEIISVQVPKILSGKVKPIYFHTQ
The experiment in a line: Competitive binding assay, [3H]DHT, transfected COS-7 cells, AR T877A. Set-up: expressed in transfected cells; host or cells: COS-7. The settings on record: 14 nM [3H]-DHT, read-out: Binding affinity (Ki), AR T877A. The procedure: Twenty-four hours prior to transfection, COS-7 cells were seeded at a density of 70,000 cells per well in 24-well cell culture plates and grown in phenol red free Dulbecco's Modified Eagle Medium (DMEM) supplement with 10% cosmic calf serum (CCS). The cells were transfected with a prokaryotic expression vector encoding the wild-type androgen receptor or mutant androgen receptor using Lipofectamine (Invitrogen) following manufacturer's protocol. […] Cells were washed with PBS and harvested in 2% SDS, 10% glycerol, and 10 mM Tris, pH 6.8, and radioactivity determined by scintillation counting.

Data set [2] addresses T1, AR T877A. The experiment in a line: Transcription assay (ARE-luciferase reporter) in CV-1 cells, AR T877A. The settings on record: for Antagonist efficacy (RLU value at IC50), AR T877A: in competition with 10 nM DHT. It is filed as cell-based. Set-up: expressed in transfected cells; host or cells: CV-1. As to the method: (§1) Twenty-four hours prior to transfection, CV-1 cells were seeded at a density of 45,000 cells per well in 24-well cell culture plates and grown in phenol red free Dulbecco's Modified Eagle Medium (DMEM) supplemented with 10% cosmic calf serum (COS). ARE-luciferase reporter and Renilla-Luc as the internal standard and a prokaryotic expression vector encoding the wild-type androgen receptor or mutant androgen receptor were transfected with Lipofectamine (Invitrogen) following manufacturer's protocol. Five hours after transfection, media was added containing the appropriate concentrations of ligands. The cells were allowed to incubate for 38 hours before harvesting by passive lysis buffer. Cell extracts were immediately assayed using the Dual Luciferase Assay (Promega) with a Perkin-Elmer Microbeta Luminometer. […] Dose-response data was analyzed by nonlinear regression analysis using GraphPad Prism.

Another data set concerns the target T2, AR W741L (Homo sapiens, UniProt P10275, W742L).
T2 construct: expressed in transfected cells; host or cells: CV-1
T2 sequence (P10275 1-920 W742L): T1 sequence (P10275 1-920 T878A) with W742L, A878T
Description: Transcription assay (ARE-luciferase reporter) in CV-1 cells, AR W741L. Type of data set: cell-based. As to conditions: for Antagonist efficacy (RLU value at IC50), AR W741L: in competition with 250 nM DHT. As to the method:
as §1
For orientation: Reporter assays use an easily measured gene product as a stand-in for the process of interest.

The target in data set [3] is T3, AR ligand-binding domain (LBD) (Homo sapiens, UniProt P10275).
T3 construct: purchased Invitrogen PV8431
T3 sequence (P10275 669-900 limits assumed): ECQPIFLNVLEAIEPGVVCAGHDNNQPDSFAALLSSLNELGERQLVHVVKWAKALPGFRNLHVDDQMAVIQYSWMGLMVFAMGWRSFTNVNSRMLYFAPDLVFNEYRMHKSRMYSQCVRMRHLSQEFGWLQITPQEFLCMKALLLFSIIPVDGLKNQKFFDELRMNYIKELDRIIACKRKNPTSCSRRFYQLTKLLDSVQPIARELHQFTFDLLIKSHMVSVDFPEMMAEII
The experiment in a line: Coactivator peptide recruitment by TR-FRET. It is filed as biochemical. The settings on record: read after 2 h and 4 h incubation.
Description: Briefly, serial dilutions of ligand stocks solutions (in DMSO) were made in TR-FRET coregulator buffer A in a 384 well plate. To each well was added a 4×-stock solution of the AR-LBD followed by a 4× stock solution of fluorescein D-11 peptide and lanthanide-labeled antiGST antibody. The plates were read by time resolved fluorescence after 2 h and 4 h incubation.

A short description of data set [4]: In vivo tolerability of PAN52. Set-up: species or system Male C57Bl/6 mice. As to conditions: 25 mg/kg/day IP in 9:1 Cremophor, 3 day or 5 day course.

With `CN(C)CCCOc1cccc(Cc2ccccc2S(=O)(=O)CC(C)(O)C(=O)Nc2ccc(C#N)c(C(F)(F)F)c2)c1` (stereo not drawn) [PAN22], the inhibition constant (Ki) on AR T877A [1] came out at 1.75 µM. For the same molecule, on AR T877A [2], the IC50 stood at 1.8 ± 0.3 µM and the “Antagonist efficacy (RLU value at IC50), AR T877A” value (“Antagonist efficacy … AR T877A” below) is “(53% ± 3.8%)”. Also, at AR W741L, 3 ± 1.8 µM corresponded to half-maximal inhibition (IC50) and the “Antagonist efficacy (RLU value at IC50), AR W741L” value (“Antagonist efficacy … AR W741L” below) is given as “(52% ± 4.9%)”.

Take `CC(O)(CS(=O)(=O)c1ccccc1-c1ccccc1O)C(=O)Nc1ccc(C#N)c(C(F)(F)F)c1` (stereo not drawn) [PAN41, N-(4-cyano-3-(trifluoromethyl)phenyl)-2-hydroxy-3-(2′-hydroxybiphenyl-2-ylsulfonyl)-2-methylpropanamide]: on AR T877A [2], the half-inhibitory concentration (IC50) came out at 3.9 ± 1.9 µM and the “Antagonist efficacy … AR T877A” value is recorded as “(53% ± 10%)”. Further, on AR W741L, the IC50 was 5.8 ± 1.6 µM and the “Antagonist efficacy … AR W741L” value is “(50% ± 1.0%)”.

With `CN(C)CCCOc1cccc(-c2ccccc2S(=O)(=O)CC(C)(O)C(=O)Nc2ccc(C#N)c(C(F)(F)F)c2)c1` (stereo not drawn) [PAN52], on AR T877A [1], the Ki came out at 4.13 µM. The “Coactivator peptide (D11, FXXLF) association with AR(LBD)” value in data set [3] is “do not show coactivator association”. Moreover, in data set [4], the “Behavior in grooming or feeding” value is recorded as “no abnormal behavior in grooming or feeding”. Moreover, on AR T877A [2], the IC50 was 4 ± 2.2 µM and the “Antagonist efficacy … AR T877A” value was “(52% ± 2.5%)”. Further, on AR W741L, 12.2 ± 6.2 µM corresponded to half-maximal inhibition (IC50) and the “Antagonist efficacy … AR W741L” value is recorded as “(53% ± 5.2%)”.

Regarding `CN(C)CCCOc1ccc(-c2ccccc2S(=O)(=O)CC(C)(O)C(=O)Nc2ccc(C#N)c(C(F)(F)F)c2)cc1` (stereo not drawn) [PAN62], the inhibition constant (Ki) at AR T877A [1] amounted to 4.3 µM. Besides, on AR T877A [2], inhibition was half-maximal at 5 ± 3.2 µM (IC50) and the “Antagonist efficacy … AR T877A” value is “(56% ± 5.9%)”. Moreover, on AR W741L, half-maximal inhibition (IC50) required 11 ± 11 µM and the “Antagonist efficacy … AR W741L” value is recorded as “(62% ± 12%)”.

The Ki is the equilibrium dissociation constant of an inhibitor or competing ligand from its target. Broadly, the IC50 is the midpoint of a concentration-inhibition curve. Lower therefore signals greater potency.
